Data taken from the NIST ThermoML archive (doi:10.1021/je0342163).
± gives the expanded uncertainty stated by the source.

Experiment: wn = mass fraction of the nth substance listed

CC(F)(F)F [1,1,1-trifluoroethane] + FCC(F)(F)F
Settings	surface tension liquid-gas [mN/m]
256.91 K, w1 = 0.7511	10.69 ± 0.18
257.03 K, w1 = 0.263	12.6 ± 0.18
257.14 K, w1 = 0.5656	11.49 ± 0.18
258.79 K, w1 = 0.7508	10.37 ± 0.18
258.87 K, w1 = 0.2627	12.39 ± 0.18
260.95 K, w1 = 0.565	10.86 ± 0.18
261 K, w1 = 0.7503	10.13 ± 0.18
262.96 K, w1 = 0.75	9.8 ± 0.18
263.05 K, w1 = 0.5646	10.49 ± 0.18
264.97 K, w1 = 0.2618	11.46 ± 0.18
264.97 K, w1 = 0.7496	9.615 ± 0.18
265.07 K, w1 = 0.5643	10.39 ± 0.18
266.84 K, w1 = 0.564	10.02 ± 0.18
267.09 K, w1 = 0.7491	9.245 ± 0.17
268.62 K, w1 = 0.7488	9.17 ± 0.17
268.83 K, w1 = 0.2611	10.94 ± 0.18
268.92 K, w1 = 0.5636	9.81 ± 0.18
270.52 K, w1 = 0.5633	9.46 ± 0.17
270.6 K, w1 = 0.7484	8.84 ± 0.17
271.15 K, w1 = 0.2607	10.62 ± 0.18
273.07 K, w1 = 0.5628	9.14 ± 0.17
273.2 K, w1 = 0.2604	10.39 ± 0.18
273.23 K, w1 = 0.7478	8.49 ± 0.17
274.99 K, w1 = 0.5625	8.825 ± 0.17
275.4 K, w1 = 0.7473	8.26 ± 0.17
275.43 K, w1 = 0.26	10.06 ± 0.18
277.04 K, w1 = 0.2597	9.845 ± 0.18
277.27 K, w1 = 0.562	8.575 ± 0.17
278.99 K, w1 = 0.5617	8.35 ± 0.17
279.15 K, w1 = 0.2593	9.5 ± 0.17
279.35 K, w1 = 0.7463	7.755 ± 0.17
281.43 K, w1 = 0.2589	9.23 ± 0.17
281.48 K, w1 = 0.5612	8 ± 0.17
281.54 K, w1 = 0.7458	7.46 ± 0.17
282.89 K, w1 = 0.2586	9.01 ± 0.17
283.35 K, w1 = 0.5608	7.755 ± 0.17
283.39 K, w1 = 0.7453	7.25 ± 0.17
285.2 K, w1 = 0.5604	7.465 ± 0.17
285.24 K, w1 = 0.2581	8.695 ± 0.17
285.45 K, w1 = 0.7448	6.985 ± 0.17
287.35 K, w1 = 0.5599	7.295 ± 0.17
287.39 K, w1 = 0.7443	6.725 ± 0.17
287.4 K, w1 = 0.2577	8.415 ± 0.17
289.05 K, w1 = 0.7438	6.5 ± 0.17
289.29 K, w1 = 0.5595	7.115 ± 0.17
289.31 K, w1 = 0.2573	8.23 ± 0.17
291.17 K, w1 = 0.7432	6.23 ± 0.17
291.2 K, w1 = 0.5591	6.82 ± 0.17
291.37 K, w1 = 0.2569	8.03 ± 0.17
293.21 K, w1 = 0.2565	7.725 ± 0.17
293.45 K, w1 = 0.2564	7.57 ± 0.17
293.49 K, w1 = 0.5585	6.47 ± 0.17
293.71 K, w1 = 0.7425	5.82 ± 0.17
295.16 K, w1 = 0.5582	6.13 ± 0.17
295.56 K, w1 = 0.7419	5.58 ± 0.17
295.58 K, w1 = 0.256	7.285 ± 0.17
297.38 K, w1 = 0.2556	7.06 ± 0.17
297.49 K, w1 = 0.7413	5.375 ± 0.17
297.52 K, w1 = 0.5576	5.875 ± 0.17
299.41 K, w1 = 0.7407	5.14 ± 0.17
299.51 K, w1 = 0.5571	5.72 ± 0.17
299.53 K, w1 = 0.2552	6.855 ± 0.17
301.41 K, w1 = 0.7401	4.89 ± 0.17
301.53 K, w1 = 0.2547	6.585 ± 0.17
302.95 K, w1 = 0.5563	5.335 ± 0.17
303.65 K, w1 = 0.7394	4.63 ± 0.17
303.66 K, w1 = 0.2542	6.325 ± 0.17
305.21 K, w1 = 0.5557	5.055 ± 0.17
305.38 K, w1 = 0.7388	4.425 ± 0.17
305.56 K, w1 = 0.2538	6.13 ± 0.17
307.4 K, w1 = 0.5552	4.755 ± 0.17
307.46 K, w1 = 0.2534	5.835 ± 0.17
307.74 K, w1 = 0.738	4.17 ± 0.17
309.3 K, w1 = 0.5547	4.56 ± 0.17
309.6 K, w1 = 0.2529	5.585 ± 0.17
309.65 K, w1 = 0.7373	3.97 ± 0.17
311.25 K, w1 = 0.2525	5.385 ± 0.17
311.41 K, w1 = 0.5541	4.29 ± 0.17
311.44 K, w1 = 0.7367	3.755 ± 0.17
313.47 K, w1 = 0.736	3.5 ± 0.17
313.55 K, w1 = 0.252	5.095 ± 0.17
313.61 K, w1 = 0.5536	4.03 ± 0.17
315.3 K, w1 = 0.5531	3.825 ± 0.17
315.54 K, w1 = 0.7352	3.3 ± 0.17
315.59 K, w1 = 0.2515	4.85 ± 0.17
317.36 K, w1 = 0.2511	4.66 ± 0.17
317.41 K, w1 = 0.5525	3.605 ± 0.17
317.57 K, w1 = 0.7345	3.11 ± 0.17
319.33 K, w1 = 0.552	3.415 ± 0.17
319.39 K, w1 = 0.7338	2.875 ± 0.17
319.66 K, w1 = 0.2506	4.41 ± 0.17
321.23 K, w1 = 0.7331	2.685 ± 0.17
321.33 K, w1 = 0.5515	3.18 ± 0.17
322.01 K, w1 = 0.25	4.12 ± 0.17
323.26 K, w1 = 0.2497	4 ± 0.17
323.33 K, w1 = 0.7323	2.44 ± 0.17
323.42 K, w1 = 0.5509	2.925 ± 0.17
325.17 K, w1 = 0.5505	2.75 ± 0.17
325.28 K, w1 = 0.7315	2.25 ± 0.17
325.69 K, w1 = 0.2492	3.67 ± 0.17
327.33 K, w1 = 0.2488	3.545 ± 0.17
327.36 K, w1 = 0.7306	2.065 ± 0.17
327.38 K, w1 = 0.5498	2.53 ± 0.17
329.42 K, w1 = 0.7298	1.81 ± 0.17
329.44 K, w1 = 0.5493	2.32 ± 0.17
